ChEMBL document CHEMBL3616403, “Probing a 3,4'-bis-guanidinium diaryl derivative as an allosteric inhibitor of the Ras pathway” (Bioorg Med Chem Lett, 2015)
pIC50: −log10 of the molar value. Blank lines part the entries; values can stand above or below the compound they belong to. Active and inactive are the calls of the source. The calls are words filed in the database; no cut-off is given here.

Key:
[1] = Cytotoxicity against human F-6-8 cells expressing B-Raf V600E mutant assessed as cell viability after 72 hrs by MTT assay; assay type: functional, cell-based
[2] = Cytotoxicity against human T29 cells expressing wild type B-Raf assessed as cell viability after 72 hrs by MTT assay; assay type: functional, cell-based; conditions: T29, 72 h
T29 [3] = test: Cytotoxicity against human T29 cells assessed as cell detachment from culture dish at 10 uM after 24 hrs by inverted microscopic analysis; assay type: functional, cell-based
[4] = Cell cycle arrest in human T29 cells assessed as decrease in cell level at G2/M phase at 5 to 10 uM after 48 to 72 hrs by propidium iodide staining-based flow cytometric analysis; assay type: functional
[5] = Selectivity ratio of IC50 for human F-6-8 cells expressing B-Raf V600E mutant to IC50 for human T29 cells expressing wild type B-Raf; assay type: functional
[6] = Cell cycle arrest in human T29 cells assessed as decrease in cell level at S phase at 5 to 10 uM after 48 to 72 hrs by propidium iodide staining-based flow cytometric analysis; assay type: functional
[7] = target: Epidermal growth factor receptor (Homo sapiens) (UniProt P00533); test: Inhibition of EGFR in human T29 cells assessed as suppression of C-Raf phosphorylation at p-21-activated protein kinase site, Ser338 after 24 hrs by Western blot analysis; assay type: cell-based
[8] = target: Epidermal growth factor receptor (Homo sapiens) (UniProt P00533); test: Inhibition EGFR in human T29 cells assessed as suppression of STAT3 phosphorylation at Tyr705 after 24 hrs by Western blot analysis; assay type: cell-based
[9] = Cell cycle arrest in human T29 cells assessed as increase in cell level at pre-G1 phase at 10 uM after 48 hrs by propidium iodide staining-based flow cytometric analysis; assay type: functional
[10] = Cell cycle arrest in human T29 cells assessed as increase in cell level at pre-G1 phase at 5 uM after 72 hrs by propidium iodide staining-based flow cytometric analysis; assay type: functional
[11] = Cell cycle arrest in human T29 cells assessed as increase in cell level at pre-G1 phase at 10 uM after 72 hrs by propidium iodide staining-based flow cytometric analysis; assay type: functional
[12] = target: Epidermal growth factor receptor (Homo sapiens) (UniProt P00533); test: Inhibition of EGFR in human T29 cells assessed as suppression of ERK phosphorylation at Tyr204 after 24 hrs by Western blot analysis; assay type: cell-based
T29 [13] = test: Cytotoxicity against human T29 cells assessed as increase in cell shrinkage at 10 uM after 24 hrs by inverted microscopic analysis; assay type: functional, cell-based
[14] = target: Serine/threonine-protein kinase B-raf (Homo sapiens) (UniProt P15056); test: Competitive inhibition of recombinant B-Raf (unknown origin) expressed in HEK293 cells up to 100 uM after 60 to 120 mins by FRET analysis in presence of ATP; assay type: cell-based
[15] = target: Epidermal growth factor receptor (Homo sapiens) (UniProt P00533); test: Inhibition of EGFR in human T29 cells assessed as suppression of AKT phosphorylation at mTORC2 site, Ser473 after 24 hrs by Western blot analysis; assay type: cell-based
[16] = Cell cycle arrest in human T29 cells assessed as decrease in cell level at G0/G1 phase at 5 to 10 uM after 48 to 72 hrs by propidium iodide staining-based flow cytometric analysis; assay type: functional
[17] = target: Epidermal growth factor receptor (Homo sapiens) (UniProt P00533); test: Inhibition of EGFR in human T29 cells assessed as suppression of Src phosphorylation at Tyr416 after 24 hrs by Western blot analysis; assay type: cell-based
T29 [18] = test: Cytotoxicity against human T29 cells assessed as increase in membrane blebbing at 10 uM after 24 hrs by inverted microscopic analysis; assay type: functional, cell-based
[19] = target: Epidermal growth factor receptor (Homo sapiens) (UniProt P00533); test: Inhibition of EGFR autophosphorylation at Tyr1068 in human T29 cells after 24 hrs by Western blot analysis; assay type: cell-based
[20] = target: Serine/threonine-protein kinase B-raf (Homo sapiens) (UniProt P15056); test: Inhibition of recombinant B-Raf (unknown origin) expressed in HEK293 cells using MEK1 peptide as substrate at 20 uM after 15 mins by radiometric assay in presence of [gamma-32P]ATP
T29 [21] = test: Cytotoxicity against human T29 cells assessed as increase in nuclear fragmentation at 10 uM after 24 hrs by inverted microscopic analysis; assay type: functional, cell-based
T29 [22] = test: Induction of apoptosis in human T29 cells assessed as PARP cleavage at 10 uM after 24 hrs by Western blot analysis; assay type: functional, cell-based
[23] = target: Epidermal growth factor receptor (Homo sapiens) (UniProt P00533); test: Inhibition of EGFR in human T29 cells assessed as suppression of MEK phosphorylation at Ser217/Ser221 after 24 hrs by Western blot analysis; assay type: cell-based
[24] = Cell cycle arrest in human T29 cells assessed as increase in cell level at pre-G1 phase at 5 uM after 48 hrs by propidium iodide staining-based flow cytometric analysis; assay type: functional

Sequence of Epidermal growth factor receptor (Homo sapiens) (P00533 whole entry): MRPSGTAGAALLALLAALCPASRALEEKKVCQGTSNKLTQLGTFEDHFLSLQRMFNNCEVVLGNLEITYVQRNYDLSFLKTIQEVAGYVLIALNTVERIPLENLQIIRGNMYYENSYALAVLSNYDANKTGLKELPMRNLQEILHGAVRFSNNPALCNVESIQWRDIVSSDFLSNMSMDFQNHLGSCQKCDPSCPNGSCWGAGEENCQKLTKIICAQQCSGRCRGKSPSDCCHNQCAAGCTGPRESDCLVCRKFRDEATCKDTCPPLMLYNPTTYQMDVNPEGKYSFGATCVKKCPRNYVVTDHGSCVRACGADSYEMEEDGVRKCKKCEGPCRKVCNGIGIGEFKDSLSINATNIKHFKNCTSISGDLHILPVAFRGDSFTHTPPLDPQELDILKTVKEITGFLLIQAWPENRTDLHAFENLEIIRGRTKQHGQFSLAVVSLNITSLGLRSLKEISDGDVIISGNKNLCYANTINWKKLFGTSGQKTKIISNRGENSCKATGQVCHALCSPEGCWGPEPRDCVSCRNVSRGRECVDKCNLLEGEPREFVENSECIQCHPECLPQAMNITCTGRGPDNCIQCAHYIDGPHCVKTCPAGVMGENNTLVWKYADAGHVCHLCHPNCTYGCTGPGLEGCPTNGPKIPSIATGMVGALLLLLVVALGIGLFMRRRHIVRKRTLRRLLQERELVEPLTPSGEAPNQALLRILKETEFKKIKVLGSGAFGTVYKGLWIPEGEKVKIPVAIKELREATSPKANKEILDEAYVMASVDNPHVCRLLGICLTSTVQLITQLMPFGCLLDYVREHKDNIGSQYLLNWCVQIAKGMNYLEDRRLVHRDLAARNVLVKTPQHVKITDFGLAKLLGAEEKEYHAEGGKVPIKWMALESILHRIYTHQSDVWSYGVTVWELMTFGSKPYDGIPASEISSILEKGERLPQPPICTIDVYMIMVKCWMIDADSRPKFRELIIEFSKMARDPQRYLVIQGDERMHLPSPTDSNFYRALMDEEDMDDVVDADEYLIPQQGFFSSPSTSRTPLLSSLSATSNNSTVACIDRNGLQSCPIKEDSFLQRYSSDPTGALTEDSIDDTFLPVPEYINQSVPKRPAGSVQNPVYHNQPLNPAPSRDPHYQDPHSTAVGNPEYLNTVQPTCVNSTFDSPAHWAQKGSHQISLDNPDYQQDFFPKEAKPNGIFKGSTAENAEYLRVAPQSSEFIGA
Sequence of Serine/threonine-protein kinase B-raf (Homo sapiens) (P15056 whole entry, the tested form may be a part): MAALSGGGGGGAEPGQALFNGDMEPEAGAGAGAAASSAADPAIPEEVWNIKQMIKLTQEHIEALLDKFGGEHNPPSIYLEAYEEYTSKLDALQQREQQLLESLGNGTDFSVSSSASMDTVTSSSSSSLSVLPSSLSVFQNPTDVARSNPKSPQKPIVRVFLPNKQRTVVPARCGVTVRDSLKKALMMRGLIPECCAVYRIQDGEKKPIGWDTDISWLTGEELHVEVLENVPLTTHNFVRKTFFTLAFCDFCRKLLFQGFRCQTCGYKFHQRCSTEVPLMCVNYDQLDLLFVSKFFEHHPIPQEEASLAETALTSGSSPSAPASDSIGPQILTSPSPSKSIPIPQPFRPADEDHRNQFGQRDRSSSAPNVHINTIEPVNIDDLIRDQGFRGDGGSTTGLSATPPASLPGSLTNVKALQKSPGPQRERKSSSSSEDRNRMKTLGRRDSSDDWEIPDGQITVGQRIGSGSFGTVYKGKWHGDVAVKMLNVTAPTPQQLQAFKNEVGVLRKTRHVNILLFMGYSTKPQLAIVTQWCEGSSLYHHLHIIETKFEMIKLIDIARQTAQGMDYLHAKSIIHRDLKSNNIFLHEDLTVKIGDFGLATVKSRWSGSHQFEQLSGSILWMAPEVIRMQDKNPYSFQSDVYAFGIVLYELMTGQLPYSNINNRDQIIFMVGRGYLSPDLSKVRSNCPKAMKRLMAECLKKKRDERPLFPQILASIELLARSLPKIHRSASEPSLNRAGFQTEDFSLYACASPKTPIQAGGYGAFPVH

SMILES: N=C(N)Nc1ccc(Oc2cccc(NC(=N)N)c2)cc1
pIC50 [1]: 5.01
pIC50 [2]: 5.19

SMILES: N=C(N)Nc1cccc(Cc2ccc(NC(=N)Nc3ccc(Cl)c(C(F)(F)F)c3)cc2)c1
pIC50 [1]: 5.12
pIC50 [2]: 5.35

SMILES: CNC(=O)c1cc(Oc2ccc(NC(=O)Nc3ccc(Cl)c(C(F)(F)F)c3)cc2)ccn1 [SORAFENIB]
pIC50 [1]: 5.89
pIC50 [2]: 6.05

inhibition [7]: Dose-dependent effect
inhibition [8]: Dose-dependent effect
inhibition [12]: Dose-dependent effect
inhibition [14]: inactive
inhibition [15]: Dose-dependent effect
inhibition [17]: Dose-dependent effect
inhibition [19]: Dose-dependent effect
inhibition [20]: Active
inhibition [23]: Dose-dependent effect
SMILES: N=C(N)Nc1ccc(Oc2cccc(NC(=N)Nc3ccc(Cl)c(C(F)(F)F)c3)c2)cc1
Activity (T29 [3]): Active
Activity [4]: Active
Ratio IC50 [5]: 2
Activity [6]: Active
pIC50 [1]: 5.59
Activity [9]: 20.7%
Activity [10]: 22.5%
Activity [11]: 38.7%
pIC50 [2]: 6.05
Activity (T29 [13]): Active
Activity [16]: Active
Activity (T29 [18]): Active
Activity (T29 [21]): Active
Activity (T29 [22]): Active
Activity [24]: 8.5%

SMILES: CC(=O)Nc1cccc(Nc2ccc(NC(=N)Nc3ccc(Cl)c(C(F)(F)F)c3)cc2)c1
pIC50 [1]: 5.18
pIC50 [2]: 5.39
